# Target: recombinant human PKR enzyme (Homo sapiens (Human), UniProt P30613)
# Assay: Pyruvate kinase (PKR) activity experiment
# Type: biochemical
# Settings: activation of recombinant human PKR enzyme
# Protocol: • 1). A recombinant human PKR enzyme solution was formulated at a concentration of 60 ng/well (a 20 μL reaction system), and 5 μL of the solution was added into each well of a black transparent bottom 384-well plate. • 2). Compound solutions were formulated at different concentrations, with the final concentrations of 1000/300/100 nM (containing 1% DMSO). Each 5 μL of the compound solution was added into the plate in item 3.1 and mixed well. The plate was incubated at room temperature for 10 min. • 3). A reaction system was formulated according to the instructions of a kit (as shown in the table below), and 10 μL of the reaction system was added into each well of the 384-well plate, and mixed uniformly with the solution in item 3.2.
# • 4). The 384-well plate was placed on a microplate reader to detect the fluorescence value at 540/590 nm, where the value was read every 2 minutes and the detection was conducted continuously for 1 hour. • 5). The Slope value within the detection time was calculated, and the 0.1% DMSO well was used as a control well to calculate a compound activation rate.
# [formula] • 6). Fitting dose-effect curve
# With the log value of the compound concentration as the X axis and the percentage activation rate as the Y axis, a dose-effect curve was fitted with the log(agonist) vs. response-variable slope of the analysis software GraphPad Prism 5, and the AC50 value of the activity of each compound against PKR was obtained.
# Chain of recombinant human PKR enzyme (P30613 whole entry): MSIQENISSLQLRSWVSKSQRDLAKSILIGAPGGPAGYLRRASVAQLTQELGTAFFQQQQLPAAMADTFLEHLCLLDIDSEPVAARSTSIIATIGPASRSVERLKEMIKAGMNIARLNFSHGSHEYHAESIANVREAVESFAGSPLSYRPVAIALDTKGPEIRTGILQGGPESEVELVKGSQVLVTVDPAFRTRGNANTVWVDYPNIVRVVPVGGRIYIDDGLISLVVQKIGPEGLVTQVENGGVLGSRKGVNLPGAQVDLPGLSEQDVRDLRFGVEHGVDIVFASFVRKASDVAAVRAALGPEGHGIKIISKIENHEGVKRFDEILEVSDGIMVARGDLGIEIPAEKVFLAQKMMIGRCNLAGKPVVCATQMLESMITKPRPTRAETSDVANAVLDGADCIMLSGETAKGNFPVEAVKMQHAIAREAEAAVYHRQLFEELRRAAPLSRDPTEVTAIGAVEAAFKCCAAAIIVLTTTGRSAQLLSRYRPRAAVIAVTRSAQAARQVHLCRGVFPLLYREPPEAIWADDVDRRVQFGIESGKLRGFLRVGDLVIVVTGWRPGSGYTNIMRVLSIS
row,SMILES,AC50 [nM]
1,"O=C([C@H](CO)c1ccccc1)N1CC(=C2CN(S(=O)(=O)c3cccnc3)C2)C1 [Compound 68, (S)-3-hydroxy-2-phenyl-1-(1′-(pyridin-3-ylsulfonyl)-1′,4′-dihydro-2H,2′H-[3,3′-diazetidinylidene]-1(4H)-yl)propane-1-one]",300 to 1000
2,"COc1ccc(S(=O)(=O)N2CC(=C3CN(C(=O)[C@H](CO)c4ccccc4)C3)C2)nc1 [Compound 67, (S)-3-hydroxy-1-(1′-((5-methoxypyridin-2-yl)sulfonyl)-1′,4′-dihydro-2H,2′H-[3,3′-diazetidinylidene]-1(4H)-yl)-2-phenylpropan-1-one]",< 100
3,"O=C(C(CO)c1ccc(F)c(Cl)c1)N1CC(=C2CN(S(=O)(=O)c3ccccn3)C2)C1 (stereo not shown) [Compound 59, 2-(3-chloro-4-fluorophenyl)-3-hydroxy-1-(1′-(pyridin-2-ylsulfonyl)-1′,4′-dihydro-2H,2′H-[3,3′-diazetidinylidene]-1(4H)-yl)propan-1-one]",101 to 300
4,"O=C([C@H](CO)c1ccc(F)cc1)N1CC(=C2CN(S(=O)(=O)c3ccc4ncsc4c3)C2)C1 [Compound 25, (S)-1-(1′-(benzo[d]thiazol-6-ylsulfonyl)-1′,4′-dihydro-2H,2′H-[3,3′-diazetidinylidene]-1(4H)-yl)-2-(4-fluorophenyl)-3-hydroxypropan-1-one]",< 100
5,"O=C(N1CC(=C2CN(S(=O)(=O)c3ccc(OC(F)F)cc3)C2)C1)C1(c2ccccc2)CCOC1 (stereo not shown) [Compound 37, (1′-((4-(difluoromethoxy)phenyl)sulfonyl)-1′,4′-dihydro-2H,2′H-[3,3′-diazetidinylidene]-1(4H)-yl)(3-phenyltetrahydrofuran-3-yl)methanone]",< 100
6,"O=C(C(CO)c1ccc(F)cc1)N1CC(=C2CN(S(=O)(=O)c3ccc(OC(F)F)cc3)C2)C1 (stereo not shown) [Compound 16, 1-(1′-((4-(difluoromethoxy)phenyl)sulfonyl)-1′,4′-dihydro-2H,2′H-[3,3′-diazetidinylidene]-1(4H)-yl)-2-(4-fluorophenyl)-3-hydroxypropan-1-one]",101 to 300
7,"O=C(C(CO)c1ccc(C(F)F)cc1)N1CC(=C2CN(S(=O)(=O)c3ccccn3)C2)C1 (stereo not shown) [Compound 71, 2-(4-(difluoromethyl)phenyl)-3-hydroxy-1-(1′-(pyridin-2-ylsulfonyl)-1′,4′-dihydro-2H,2′H-[3,3′-diazetidinylidene]-1(4H)-yl)propan-1-one]",< 100
8,"CN1CCOc2ccc(S(=O)(=O)N3CC(=C4CN(C(=O)[C@H](CO)c5ccccc5)C4)C3)cc21 [Compound 39, (S)-3-hydroxy-1-(1′-((4-methyl-3,4-dihydro-2H-benzo[b][1,4]oxazin-6-yl)sulfonyl)-1′,4′-dihydro-2H,2′H-[3,3′-diazetidinylidene]-1(4H)-yl)-2-phenylpropan-1-one]",< 100
9,"O=C([C@H](CO)c1ccc(F)c(Cl)c1)N1CC(=C2CN(S(=O)(=O)c3ccccn3)C2)C1 [Compound 77, (S)-2-(3-chloro-4-fluorophenyl)-3-hydroxy-1-(1′-(pyridin-2-ylsulfonyl)-1′,4′-dihydro-2H,2′H-[3,3′-diazetidinylidene]-1(4H)-yl)propan-1-one]",< 100
10,"O=C(C(CO)c1ccc2ccccc2c1)N1CC(=C2CN(S(=O)(=O)c3ccc4ncsc4c3)C2)C1 (stereo not shown) [Compound 32, 1-(1′-(benzo[d]thiazol-6-ylsulfonyl)-1′,4′-dihydro-2H,2′H-[3,3′-diazetidinylidene]-1(4H)-yl)-3-hydroxy-2-(naphthalene-2-yl)propan-1-one]",< 100
11,"O=C([C@@H](CO)c1ccc(F)cc1)N1CC(=C2CN(S(=O)(=O)c3ccccn3)C2)C1 [Compound 55, (R)-2-(4-fluorophenyl)-3-hydroxy-1-(1′-(pyridin-2-ylsulfonyl)-1′,4′-dihydro-2H,2′H-[3,3′-diazetidinylidene]-1(4H)-yl)propan-1-one]",300 to 1000
12,"[2H]C([2H])([2H])Oc1ccc(S(=O)(=O)N2CC(=C3CN(C(=O)[C@H](CO)c4ccccc4)C3)C2)nc1 [Compound 91, (S)-3-hydroxy-1-(1′-((5-(methoxy-d3)pyridin-2-yl)sulfonyl)-1′,4′-dihydro-2H,2′H-[3,3′-diazetidinylidene]-1(4H)-yl)-2-phenylpropan-1-one]",< 100
13,"O=C([C@H](CO)c1ccccc1)N1CC(=C2CN(S(=O)(=O)c3cccc4cccnc34)C2)C1 [Compound 69, (S)-3-hydroxy-2-phenyl-1-(1′-(quinolin-8-ylsulfonyl)-1′,4′-dihydro-2H,2′H-[3,3′-diazetidinylidene]-1(4H)-yl)propan-1-one]",< 100
14,"O=C(C(CO)c1ccc(F)c(F)c1)N1CC(=C2CN(S(=O)(=O)c3ccccn3)C2)C1 (stereo not shown) [Compound 61, 2-(3,4-difluorophenyl)-3-hydroxy-1-(1′-(pyridin-2-ylsulfonyl)-1′,4′-dihydro-2H,2′H-[3,3′-diazetidinylidene]-1(4H)-yl)propan-1-one]",300 to 1000
15,"O=C([C@H](CO)c1ccccc1)N1CC(=C2CN(S(=O)(=O)c3ccc(OC(F)F)cn3)C2)C1 [Compound 80, (S)-1-(1′-((5-(difluoromethoxy)pyridin-2-yl)sulfonyl)-1′,4′-dihydro-2H,2′H-[3,3′-diazetidinylidene]-1(4H)-yl)-3-hydroxy-2-phenylpropan-1-one]",< 100
16,"CN1CCN(c2cccc(C(O)C(=O)N3CC(=C4CN(S(=O)(=O)c5ccc6ncsc6c5)C4)C3)c2)CC1 (stereo not shown) [Compound 43, 1-(1′-(benzo[d]thiazol-6-ylsulfonyl)-1′,4′-dihydro-2H,2′H-[3,3′-diazetidinylidene]-1(4H)-yl)-2-hydroxy-2-(3-(4-methylpiperazin-1-yl)phenyl)ethan-1-one]",300 to 1000
17,"O=C([C@H](CO)c1ccccc1)N1CC(=C2CN(S(=O)(=O)c3ccc(OC(F)F)cc3)C2)C1 [Compound 7, (S)-1-(1′-((4-(difluoromethoxy)phenyl)sulfonyl)-1′,4′-dihydro-2H,2′H-[3,3′-diazetidinylidene]-1(4H)-yl)-3-hydroxy-2-phenylpropan-1-one]",101 to 300

# Second part, the compound after the results:
row,AC50 [nM],SMILES
1,101 to 300,"O=C(C(CO)c1ccc(Cl)cc1)N1CC(=C2CN(S(=O)(=O)c3ccccn3)C2)C1 (stereo not shown) [Compound 75, 2-(4-chlorophenyl)-3-hydroxy-1-(1′-(pyridin-2-ylsulfonyl)-1′,4′-dihydro-2H,2′H-[3,3′-diazetidinylidene]-1(4H)-yl)propan-1-one]"
2,300 to 1000,"O=C(C(CO)c1cc(F)cc(Cl)c1)N1CC(=C2CN(S(=O)(=O)c3ccccn3)C2)C1 (stereo not shown) [Compound 86, 2-(3-chloro-5-fluorophenyl)-3-hydroxy-1-(1′-(pyridin-2-ylsulfonyl)-1′,4′-dihydro-2H,2′H-[3,3′-diazetidinylidene]-1(4H)-yl)propan-1-one]"
3,300 to 1000,"O=C(C(CO)c1ccc(F)cc1)N1CC(=C2CN(S(=O)(=O)c3ccc4c(c3)OC(F)(F)O4)C2)C1 (stereo not shown) [Compound 36, 1-(1′-((2,2-difluorobenzo[d][1,3]dioxolan-5-yl)sulfonyl)-1′,4′-dihydro-2H,2′H-[3,3′-diazetidinylidene]-1(4H)-yl)-2-(4-fluorophenyl)-3-hydroxypropan-1-one]"
4,101 to 300,"CC(C)Oc1ccc(S(=O)(=O)N2CC(=C3CN(C(=O)[C@H](CO)c4ccccc4)C3)C2)nc1 [Compound 81, (S)-3-hydroxy-1-(1′-((5-isopropoxypyridin-2-yl)sulfonyl)-1′,4′-dihydro-2H,2′H-[3,3′-diazetidinylidene]-1(4H)-yl)-2-phenylpropan-1-one]"
5,300 to 1000,"Cn1cc(-c2ccc(C(CO)C(=O)N3CC(=C4CN(S(=O)(=O)c5ccc6ncsc6c5)C4)C3)cc2)cn1 (stereo not shown) [Compound 34, 1-(1′-(benzo[d]thiazol-6-ylsulfonyl)-1′,4′-dihydro-2H,2′H-[3,3′-diazetidinylidene]-1(4H)-yl)-3-hydroxy-2-(4-(1-methyl-1H-pyrazol-4-yl)phenyl)propan-1-one]"
6,101 to 300,"N#Cc1ccc(S(=O)(=O)N2CC(=C3CN(C(=O)[C@H](CO)c4ccccc4)C3)C2)cc1 [Compound 65, (S)-4-(1′-(3-hydroxy-2-phenylpropionyl)-1′,4′-dihydro-2H,2′H-[3,3′-diazetidinylidene]-1(4H)-ylsulfonyl)benzonitrile]"
7,< 100,"O=C([C@H](CO)c1ccc(F)cc1)N1CC(=C2CN(S(=O)(=O)c3ccccn3)C2)C1 [Compound 54, (S)-2-(4-fluorophenyl)-3-hydroxy-1-(1′-(pyridin-2-ylsulfonyl)-1′,4′-dihydro-2H,2′H-[3,3′-diazetidinylidene]-1(4H)-yl)propan-1-one]"
8,300 to 1000,CN1CCN(c2cccc(C(CO)C(=O)N3CC(=C4CN(S(=O)(=O)c5ccc6ncsc6c5)C4)C3)c2)CC1 (stereo not shown) [Compound 33]
9,101 to 300,O=C([C@H](CO)c1ccccc1)N1CC(=C2CN(S(=O)(=O)c3ccc(Cl)cn3)C2)C1 [Compound 66]
10,300 to 1000,"COc1ccc(S(=O)(=O)N2CC(=C3CN(C(=O)[C@@H](CO)c4ccc(F)cc4F)C3)C2)nc1 [Compound 88, (R)-2-(2,4-difluorophenyl)-3-hydroxy-1-(1′-((5-methoxypyridin-2-yl)sulfonyl)-1′,4′-dihydro-2H,2′H-[3,3′-diazetidinylidene]-1(4H)-yl)propan-1-one]"
11,101 to 300,O=C([C@H](CO)c1ccccc1)N1CC(=C2CN(S(=O)(=O)c3ccc(F)cc3)C2)C1 [Compound 10]

# Source: patent US20250145635A1, “COMPOUND CONTAINING BIS(AZANYLYLIDENE) SULFONYL STRUCTURE AND USE THEREOF IN MEDICINE” (SCINNOHUB PHARMACEUTICAL CO., LTD., priority 2021, published 2025)
